# Source: ChEMBL document CHEMBL1201862, “PubChem BioAssay data set” (2004)
# Active and inactive are the calls of the source. Cut-off read from the data, not from the text of the source: actives have a measured IC50 and inactives only a lower limit.
# Target: Envelope glycoprotein gp160 (Human immunodeficiency virus 1, UniProt Q6QLK5)
# Assay: inhibitors of HIV fusion peptide binding, primary screen, biochemical, uHTS, fluorescence dequenching (AID 1986)
# Sequence of Envelope glycoprotein gp160 (Q6QLK5 whole entry, the tested form may be a part): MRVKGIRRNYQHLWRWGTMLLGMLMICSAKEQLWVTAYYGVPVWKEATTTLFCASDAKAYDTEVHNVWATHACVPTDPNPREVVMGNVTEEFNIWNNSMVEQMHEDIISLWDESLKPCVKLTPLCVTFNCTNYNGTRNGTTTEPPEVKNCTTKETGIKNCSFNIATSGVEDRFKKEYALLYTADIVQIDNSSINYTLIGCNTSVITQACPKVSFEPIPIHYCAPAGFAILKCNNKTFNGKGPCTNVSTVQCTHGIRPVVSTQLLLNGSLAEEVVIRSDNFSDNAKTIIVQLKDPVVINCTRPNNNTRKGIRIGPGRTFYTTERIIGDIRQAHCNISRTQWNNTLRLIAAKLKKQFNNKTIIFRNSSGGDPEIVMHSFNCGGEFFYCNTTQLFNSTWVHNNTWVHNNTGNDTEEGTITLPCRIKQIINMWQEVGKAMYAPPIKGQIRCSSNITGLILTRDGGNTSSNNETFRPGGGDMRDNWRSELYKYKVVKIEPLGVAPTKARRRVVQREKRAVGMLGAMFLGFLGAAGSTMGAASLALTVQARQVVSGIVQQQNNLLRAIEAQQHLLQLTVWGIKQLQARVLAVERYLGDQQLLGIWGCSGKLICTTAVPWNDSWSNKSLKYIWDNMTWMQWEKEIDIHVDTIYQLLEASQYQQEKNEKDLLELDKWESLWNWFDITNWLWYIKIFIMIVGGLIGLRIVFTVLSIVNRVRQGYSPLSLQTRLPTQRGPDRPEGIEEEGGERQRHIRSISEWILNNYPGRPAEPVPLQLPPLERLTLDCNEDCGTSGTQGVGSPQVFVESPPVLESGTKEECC
row,Compound,IC50
1,CC(C)NC(=O)c1sc(=S)n2c1[nH]c(=O)c1ccc(C(=O)NCCc3ccc(Cl)cc3)cc12,95.7 µM (active)
2,O=C(O)COc1ccc(Br)cc1C(c1c(C(=O)O)[nH]c2ccccc12)c1c(C(=O)O)[nH]c2ccccc12,5.76 µM (active)
3,CC1=NN(c2ccc(C(=O)O)cc2)C(=O)/C1=C\c1ccc(OC(=O)c2cccs2)cc1,12.6 µM (active)
4,COc1ccc(/N=C2\S/C(=C\c3ccc(OCC(=O)O)cc3)C(=O)N2CCc2c[nH]c3ccccc23)cc1,12.6 µM (active)
